In publication PMC10961714, “Novel chemotype NLRP3 inhibitors that target the CRID3-binding pocket with high potency” (Life Science Alliance, 2024):

Assays:
[1] = molecular target: T1, carbonic anhydrase I (Homo sapiens, UniProt P00915); assay: p-NPA esterase activity assay with […] compound; type: biochemical
T1 construct: gene CA1; recombinant carbonic anhydrase I (C4396, Sigma-Aldrich)

[2] = molecular target: T2, carbonic anhydrase II (Homo sapiens, UniProt P00918); assay: p-NPA esterase activity assay with […] compound; type: biochemical
T2 construct: gene CA2; CA II (C6165, Sigma-Aldrich)

[3] = molecular target: T3, NLRP3 (Homo sapiens, UniProt Q96P20); assay: NanoBRET target engagement (tracer displacement) in live HEK293 cells; type: cell-based
T3 construct: full-length NLRP3-Nanoluc fusion protein
T3 sequence (Q96P20 whole entry, the tested form may be a part): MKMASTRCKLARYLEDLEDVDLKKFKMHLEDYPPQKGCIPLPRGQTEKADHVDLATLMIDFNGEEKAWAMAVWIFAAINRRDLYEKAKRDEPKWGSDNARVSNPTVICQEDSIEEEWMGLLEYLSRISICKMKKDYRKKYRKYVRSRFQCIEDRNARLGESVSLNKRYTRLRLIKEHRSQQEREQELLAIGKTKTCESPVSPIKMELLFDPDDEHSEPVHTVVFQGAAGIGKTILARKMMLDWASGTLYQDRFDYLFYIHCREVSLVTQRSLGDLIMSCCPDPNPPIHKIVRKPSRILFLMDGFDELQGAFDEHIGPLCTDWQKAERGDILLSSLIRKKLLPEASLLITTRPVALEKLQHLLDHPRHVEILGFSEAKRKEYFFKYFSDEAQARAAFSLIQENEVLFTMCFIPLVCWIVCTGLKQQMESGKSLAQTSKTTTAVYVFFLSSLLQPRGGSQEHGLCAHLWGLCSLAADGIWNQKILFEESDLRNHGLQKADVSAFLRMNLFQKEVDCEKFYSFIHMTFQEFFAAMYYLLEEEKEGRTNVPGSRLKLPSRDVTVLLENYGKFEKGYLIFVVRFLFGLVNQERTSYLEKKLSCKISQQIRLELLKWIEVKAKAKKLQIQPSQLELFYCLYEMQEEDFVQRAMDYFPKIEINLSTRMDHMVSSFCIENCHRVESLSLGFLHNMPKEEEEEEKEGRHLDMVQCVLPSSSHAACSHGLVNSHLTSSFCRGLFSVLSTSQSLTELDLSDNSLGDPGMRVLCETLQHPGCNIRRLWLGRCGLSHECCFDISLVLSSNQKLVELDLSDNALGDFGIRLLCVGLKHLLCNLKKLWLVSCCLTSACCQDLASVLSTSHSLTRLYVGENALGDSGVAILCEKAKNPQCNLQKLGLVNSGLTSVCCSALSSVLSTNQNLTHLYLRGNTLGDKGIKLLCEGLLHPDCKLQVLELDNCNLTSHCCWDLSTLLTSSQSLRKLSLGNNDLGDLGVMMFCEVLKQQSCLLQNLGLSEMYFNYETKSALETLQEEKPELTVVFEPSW

T1 sequence (P00915 2-261): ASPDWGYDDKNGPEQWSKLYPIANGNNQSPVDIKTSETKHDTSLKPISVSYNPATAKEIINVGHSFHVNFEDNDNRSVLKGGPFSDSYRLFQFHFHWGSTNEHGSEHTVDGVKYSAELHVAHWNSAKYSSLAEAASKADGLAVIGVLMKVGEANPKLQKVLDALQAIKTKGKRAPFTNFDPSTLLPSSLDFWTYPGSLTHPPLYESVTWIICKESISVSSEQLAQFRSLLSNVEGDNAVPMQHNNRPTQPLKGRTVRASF

## CC(C)(O)c1coc(S(=O)(=O)NC(=O)Nc2c3c(cc4c2CCC4)CCC3)c1 [CRID3]
[1]
  p-NPA esterase activity assay with 100 μM compound: observed significant inhibition of the related enzyme carbonic anhydrase I as well
[2]
  p-NPA esterase activity assay with 100 μM compound: We confirmed this off-target activity of CRID3 in our studies

## CC(C)(O)c1nn(CC(=O)Nc2ccncn2)c(=O)c2cc3sc(Cl)cc3n12 [NIC-11]
[3]
  IC50: 212 nM

## CC(C)c1nn(CC(=O)N[C@@H]2CCCN(CC3CC3)C2)c(=O)c2cc3sc(Cl)cc3n12 [NIC-12]
[3]
  IC50: 131 nM
